Experiment [1] deals with NA from Virus H5N1 (soluble viral NA, N1) (Influenza A virus, UniProt Q6DPL2). The experiment is described as follows: biochemical. The note with it: IC50 inhibition of soluble NA from Virus H5N1.
The target in experiment [2] is NA from Virus H3N2 (soluble viral NA, N2) (Influenza A virus, UniProt Q91MA2). As to the kind of experiment: biochemical. Conditions: IC50 inhibition of soluble NA from Virus H3N2.

These results are taken from paper PMC4397911 (Bioorganic & medicinal chemistry letters, 2013).

Broadly, the IC50 is the midpoint of a concentration-inhibition curve. Higher therefore signals lower potency.

Chain of NA from Virus H3N2 (soluble viral NA, N2) (Q91MA2 31-469 limits assumed): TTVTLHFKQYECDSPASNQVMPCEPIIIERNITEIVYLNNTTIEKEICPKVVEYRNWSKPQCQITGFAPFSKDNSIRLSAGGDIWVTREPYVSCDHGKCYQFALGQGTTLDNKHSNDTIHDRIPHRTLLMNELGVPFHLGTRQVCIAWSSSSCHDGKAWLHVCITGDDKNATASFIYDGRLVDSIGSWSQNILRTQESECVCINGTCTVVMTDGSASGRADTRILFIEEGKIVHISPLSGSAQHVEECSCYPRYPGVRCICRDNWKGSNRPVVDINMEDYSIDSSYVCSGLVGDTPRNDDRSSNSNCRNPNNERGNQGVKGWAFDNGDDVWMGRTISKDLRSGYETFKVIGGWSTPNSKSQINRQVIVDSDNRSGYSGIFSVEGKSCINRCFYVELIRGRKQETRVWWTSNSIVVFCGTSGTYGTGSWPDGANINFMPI
Chain of NA from Virus H5N1 (soluble viral NA, N1) (Q6DPL2 35-449 limits assumed): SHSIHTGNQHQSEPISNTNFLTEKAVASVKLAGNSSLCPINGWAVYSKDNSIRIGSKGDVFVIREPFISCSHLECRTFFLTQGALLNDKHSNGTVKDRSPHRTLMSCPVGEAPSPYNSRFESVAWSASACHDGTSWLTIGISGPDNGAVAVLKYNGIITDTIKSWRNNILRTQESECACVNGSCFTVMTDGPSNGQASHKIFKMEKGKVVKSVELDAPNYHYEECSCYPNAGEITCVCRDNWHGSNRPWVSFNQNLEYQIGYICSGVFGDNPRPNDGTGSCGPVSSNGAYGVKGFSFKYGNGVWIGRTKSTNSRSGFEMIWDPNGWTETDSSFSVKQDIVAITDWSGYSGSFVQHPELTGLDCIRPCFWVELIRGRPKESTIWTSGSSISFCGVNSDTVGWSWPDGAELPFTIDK

`CC(=O)N[C@H]1[C@H]([C@H](O)[C@H](O)CO)OC(SCCCCCCS)(C(=O)O)C[C@@H]1NC(=N)N` (stereo partly shown) [SG]: the IC50 in experiment [1] amounted to 0.1 ± 0.02 µM.
Regarding `CC(=O)N[C@H]1[C@H]([C@H](O)[C@H](O)CO)OC(SCCOCCOCCOCCOCCSC2(C(=O)O)C[C@H](N)[C@@H](NC(C)=O)[C@H]([C@H](O)[C@H](O)CO)O2)(C(=O)O)C[C@@H]1N` (stereo partly shown) [PentaEG-SA], the IC50 in experiment [1] stood at 1.1 ± 0.1 µM; in experiment [2] it was 10 ± 2 µM.
In the same order, the values of `CC(=O)N[C@H]1[C@H]([C@H](O)[C@H](O)CO)OC(SCCOCCOCCOCCOCCOCCSC2(C(=O)O)C[C@H](N)[C@@H](NC(C)=O)[C@H]([C@H](O)[C@H](O)CO)O2)(C(=O)O)C[C@@H]1N` (stereo partly shown) [HexaEG-SA] are 0.57 ± 0.06 µM and 11 ± 2 µM.
`CC(=O)N[C@H]1[C@H]([C@H](O)[C@H](O)CO)OC(SCCCCCCS)(C(=O)O)C[C@@H]1N` (stereo partly shown) [SA]: the IC50 in experiment [1] and in experiment [2] was 60 to 180 µM throughout.
